# Target: truncated form of human NaV 1.8 with full channel activity (Homo sapiens, UniProt Q9Y5Y9)
# Experiment: E-VIPR Assay Method A for detecting and measuring Nav inhibition (HEK cells, membrane potential FRET dyes, electrical stimulation)
# Format: cell-based
# Conditions: HEK cells expressing human NaV 1.8, HS (human serum) in compound loading buffer, 11 point dose response, top dose 3 μM, Table 20, read-out: Nav 1.8 MedChem Optical Assay EVIPR Assay Method A HS IC50
# Description: E-VIPR Assay Method A for Detecting and Measuring Nav Inhibition Properties Sodium ion channels are voltage-dependent proteins that can be activated by inducing membrane voltage changes by applying electric fields. The electrical stimulation instrument and methods of use, referred to as E-VIPR, are described in International Publication No. WO 2002/008748 A3 and C.-J. Huang et al. Characterization of voltage-gated sodium channel blockers by electrical stimulation and fluorescence detection of membrane potential, 24 Nature Biotech. 439-46 (2006), both of which are incorporated by reference in their entirety. The instrument comprises a microtiter plate handler, an optical system for exciting the coumarin dye while simultaneously recording the coumarin and oxonol emissions, a waveform generator, a current- or voltage-controlled amplifier, and parallel electrode pairs that are inserted into assay plate wells. Under integrated computer control, this instrument passes user-programmed electrical stimulus protocols to cells within the wells of the microtiter plate. […] Sigma #F4135), 1% NEAA (Non-Essential Amino Acids, Life Tech #11140), 1% HEPES (Life Tech #15630), 1% Pen-Strep (Penicillin-Streptomycin; […] Cells were expanded in vented cap flasks, with 95% humidity and 5% CO2. Reagents and Stock Solutions: • 100 mg/mL Pluronic F-127 (Sigma #P2443), in dry DMSO • Compound Plates: […] 5% KIR 2.1 Bacmam virus (produced in-house), prepared as described in Section 3.3 of J. A. […] The solution was made by adding 10% Pluronic F127 stock equal to combined volumes of CC2-DMPE and DiSBAC6(3). The order of preparation was first mix Pluronic and CC2-DMPE, then add DiSBAC6(3), then while vortexing add Bath1/β-Cyclodextrin. […] Assay Protocol: […] Final DMSO concentration for all wells in the assay was 0.625% (0.75% DMSO was supplemented to the Compound Loading Buffer for a final DMSO concentration of 0.625%). […] 3) Cell plates were prepared. On the day of the assay, the media was aspirated, and the cells were washed three times with 80 μL of Bath-1 buffer, maintaining 25 μL residual volume in each well. 4) 25 μL per well of Hexyl Dye Solution was dispensed into the cell plates. The cells were incubated for 20 minutes at room temp or ambient conditions in darkness. 5) 80 μL per well of Compound Loading Buffer was dispensed into compound plates. 6) The cell plates were washed three times with 80 μL per well of Bath-1 Buffer, leaving 25 µL of residual volume. Then 25 uL per well from compound plate was transferred to each cell plate. The mixture was incubated for 30 minutes at room temp/ambient conditions. 7) The plate was read on E-VIPR using the current-controlled amplifier to deliver stimulation wave pulses using the following protocol: 1.25 Amps, 2.5 ms pulse width biphasic waveform, 10 Hz for 10 seconds at a scan rate of 200 Hz. A pre-stimulus recording was performed for 0.5 seconds to obtain the un-stimulated intensities baseline. The stimulatory waveform was followed by 0.5 seconds of post-stimulation recording to examine the relaxation to the resting state. Data Analysis: Data were analyzed and reported as normalized ratios of emission intensities measured in the 460 nm and 580 nm channels. The response as a function of time was reported as the ratios obtained using the following formula: […] The data were further reduced by calculating the initial (Ri) and final (Rf) ratios. These were the average ratio values during part or all of the pre-stimulation period and during sample points during the stimulation period. The fluorescence ratio (Rf/Ri) was then calculated and reported as a function of time. Control responses were obtained by performing assays in the presence of the positive control, and in the absence of pharmacological agents (DMSO vehicle negative control). Responses to the negative (N) and positive (P) controls were calculated as above. The compound antagonist % activity A was then defined as: [formula] where X is the ratio response of the test compound. […]
# truncated form of human NaV 1.8 with full channel activity, sequence (Q9Y5Y9 126-1722 limits assumed): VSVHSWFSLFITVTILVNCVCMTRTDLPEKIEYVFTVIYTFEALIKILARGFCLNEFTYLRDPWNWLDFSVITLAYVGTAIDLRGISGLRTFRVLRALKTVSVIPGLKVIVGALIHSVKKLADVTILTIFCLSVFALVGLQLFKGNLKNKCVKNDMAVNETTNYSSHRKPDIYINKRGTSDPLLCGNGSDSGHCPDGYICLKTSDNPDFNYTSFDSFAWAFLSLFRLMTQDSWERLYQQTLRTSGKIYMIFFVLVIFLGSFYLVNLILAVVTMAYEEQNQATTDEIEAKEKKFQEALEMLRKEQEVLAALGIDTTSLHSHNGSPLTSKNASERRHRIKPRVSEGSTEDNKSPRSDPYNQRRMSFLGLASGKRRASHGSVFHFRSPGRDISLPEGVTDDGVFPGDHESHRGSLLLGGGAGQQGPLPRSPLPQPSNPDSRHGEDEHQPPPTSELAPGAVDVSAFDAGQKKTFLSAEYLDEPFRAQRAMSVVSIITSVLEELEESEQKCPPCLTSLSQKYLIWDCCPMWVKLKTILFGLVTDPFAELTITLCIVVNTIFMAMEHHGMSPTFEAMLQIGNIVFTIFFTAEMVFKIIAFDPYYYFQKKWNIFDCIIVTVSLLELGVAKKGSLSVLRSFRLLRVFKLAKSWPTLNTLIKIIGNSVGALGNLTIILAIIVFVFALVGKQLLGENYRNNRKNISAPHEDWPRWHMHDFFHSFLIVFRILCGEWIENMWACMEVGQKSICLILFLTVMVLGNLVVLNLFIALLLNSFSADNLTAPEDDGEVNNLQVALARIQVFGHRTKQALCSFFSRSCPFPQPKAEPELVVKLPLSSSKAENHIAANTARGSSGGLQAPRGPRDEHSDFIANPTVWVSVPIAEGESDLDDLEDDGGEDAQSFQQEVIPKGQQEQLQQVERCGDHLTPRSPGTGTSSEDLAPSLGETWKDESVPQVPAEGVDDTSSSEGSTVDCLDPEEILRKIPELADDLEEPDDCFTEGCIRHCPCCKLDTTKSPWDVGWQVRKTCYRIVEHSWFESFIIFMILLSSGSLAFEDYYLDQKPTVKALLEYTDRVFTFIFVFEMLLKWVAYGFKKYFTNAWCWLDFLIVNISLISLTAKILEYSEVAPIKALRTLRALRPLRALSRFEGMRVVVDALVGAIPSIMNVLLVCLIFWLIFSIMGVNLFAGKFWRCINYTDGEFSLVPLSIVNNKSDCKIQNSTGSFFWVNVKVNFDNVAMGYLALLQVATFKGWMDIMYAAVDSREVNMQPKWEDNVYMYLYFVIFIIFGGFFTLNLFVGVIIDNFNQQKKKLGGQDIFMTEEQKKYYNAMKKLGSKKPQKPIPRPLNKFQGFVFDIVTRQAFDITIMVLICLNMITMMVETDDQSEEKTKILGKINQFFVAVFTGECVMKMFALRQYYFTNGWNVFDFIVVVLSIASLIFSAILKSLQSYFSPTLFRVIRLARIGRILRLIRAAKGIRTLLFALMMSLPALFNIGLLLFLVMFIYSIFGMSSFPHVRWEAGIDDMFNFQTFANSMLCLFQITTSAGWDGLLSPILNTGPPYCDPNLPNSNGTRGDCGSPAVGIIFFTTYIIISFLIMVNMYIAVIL
row,SMILES,IC50
1,"COc1cc(OC(F)(F)F)ccc1Oc1ccc(C(F)(F)C(F)(F)F)cc1C(=O)Nc1ccc(F)c(C(N)=O)c1 [Compound 19, N-(3-carbamoyl-4-fluoro-phenyl)-2-[2-methoxy-4-(trifluoromethoxy)phenoxy]-5-(1,1,2,2,2-pentafluoroethyl)benzamide]",10 nM
2,"COc1cc(OC(F)(F)F)ccc1Oc1cc(OC(F)F)cc(F)c1C(=O)Nc1ccnc(C(N)=O)c1 [Compound 20, 4-[[4-(difluoromethoxy)-2-fluoro-6-[2-methoxy-4-(trifluoromethoxy)phenoxy]benzoyl]amino]pyridine-2-carboxamide]",10 nM
3,"NC(=O)c1cc(NC(=O)c2c(Oc3ccc(OC(F)(F)F)cc3F)ccc(C(F)(F)F)c2F)ccc1F [Compound 21, N-(3-carbamoyl-4-fluoro-phenyl)-2-fluoro-6-[2-fluoro-4-(trifluoromethoxy)phenoxy]-3-(trifluoromethyl)benzamide]",10 nM
4,"COc1cc(OC(F)(F)F)ccc1Oc1cc(C2CC2)cc(F)c1C(=O)Nc1ccnc(C(N)=O)c1 [Compound 22, 4-[[4-cyclopropyl-2-fluoro-6-[2-methoxy-4-(trifluoromethoxy)phenoxy]benzoyl]amino]pyridine-2-carboxamide]",11 nM
5,"COc1cc(OC(F)(F)F)ccc1Oc1cc(C(F)(F)F)c(F)cc1C(=O)Nc1ccc(F)c(C(N)=O)c1 [Compound 23, N-(3-carbamoyl-4-fluoro-phenyl)-5-fluoro-2-[2-methoxy-4-(trifluoromethoxy)phenoxy]-4-(trifluoromethyl)benzamide]",14 nM
6,"[2H]C([2H])([2H])Oc1cc(OC(F)(F)F)ccc1Oc1ccc(C(F)(F)F)c(F)c1C(=O)Nc1ccc(C(N)=O)nc1 [Compound 24, 5-[[2-fluoro-6-[2-(trideuteriomethoxy)-4-(trifluoromethoxy)phenoxy]-3-(trifluoromethyl)benzoyl]amino]pyridine-2-carboxamide]",18 nM
7,"NC(=O)c1cc(NC(=O)c2c(Oc3ccc(F)cc3)ccc(C(F)(F)F)c2F)ccc1F [Compound 25, N-(3-carbamoyl-4-fluoro-phenyl)-2-fluoro-6-(4-fluorophenoxy)-3-(trifluoromethyl)benzamide]",18 nM
8,"COc1c(Oc2ccc(C(F)(F)F)c(F)c2C(=O)Nc2ccnc(C(N)=O)c2)ccc(OC(F)(F)F)c1F [Compound 26, 4-[[2-fluoro-6-[3-fluoro-2-methoxy-4-(trifluoromethoxy)phenoxy]-3-(trifluoromethyl)benzoyl]amino]pyridine-2-carboxamide]",2 nM

# Same assay, conditions: HEK cells expressing human NaV 1.8, HS (human serum) in compound loading buffer, 11 point dose response, top dose 3 μM, Table 20A, read-out: Nav 1.8 MedChem Optical Assay EVIPR Assay Method A HS IC50
row,SMILES,IC50
1,"COc1cc(OC(F)(F)F)ccc1Oc1cc(C(F)(F)F)ccc1C(=O)Nc1ccc(F)c(C(N)=O)c1 [Compound 27, N-(3-Carbamoyl-4-fluoro-phenyl)-2-[2-methoxy-4-(trifluoromethoxy)phenoxy]-4-(trifluoromethyl)benzamide]",87 nM
2,"COc1cc(OC(F)(F)F)ccc1Oc1cc(C(F)(F)F)ccc1C(=O)Nc1cccc(C(N)=O)c1 [Compound 28, N-(3-Carbamoylphenyl)-2-[2-methoxy-4-(trifluoromethoxy)phenoxy]-4-(trifluoromethyl)benzamide]",108 nM
3,"COc1cc(OC(F)(F)F)ccc1Oc1cc(C(F)(F)F)ncc1C(=O)Nc1cccc(C(N)=O)c1 [Compound 29, N-(3-Carbamoylphenyl)-4-[2-methoxy-4-(trifluoromethoxy)phenoxy]-6-(trifluoromethyl)pyridine-3-carboxamide]",112 nM
4,"COc1cc(OC(F)(F)F)ccc1Oc1cc(C(F)(F)F)ncc1C(=O)Nc1ccc(F)c(C(N)=O)c1 [Compound 30, N-(3-Carbamoyl-4-fluoro-phenyl)-4-[2-methoxy-4-(trifluoromethoxy)phenoxy]-6-(trifluoromethyl)pyridine-3-carboxamide]",20 nM
5,"COc1cc(OC(F)(F)F)ccc1Oc1cc(C(F)(F)F)cnc1C(=O)Nc1cccc(C(N)=O)c1 [Compound 31, N-(3-Carbamoylphenyl)-3-[2-methoxy-4-(trifluoromethoxy)phenoxy]-5-(trifluoromethyl)pyridine-2-carboxamide]",155 nM
6,"COc1cc(OC(F)(F)F)ccc1Oc1cc(C(F)(F)F)cnc1C(=O)Nc1ccc(F)c(C(N)=O)c1 [Compound 32, N-(3-Carbamoyl-4-fluoro-phenyl)-3-[2-methoxy-4-(trifluoromethoxy)phenoxy]-5-(trifluoromethyl)pyridine-2-carboxamide]",55 nM
7,"CC(C)c1cc(Oc2ccc(OC(F)(F)F)c(F)c2)c(C(=O)Nc2ccc(F)c(C(N)=O)c2)cn1 [Compound 33, N-(3-Carbamoyl-4-fluoro-phenyl)-4-[3-fluoro-4-(trifluoromethoxy)phenoxy]-6-isopropyl-pyridine-3-carboxamide]",520 nM
8,"COc1cc(OC(F)(F)F)ccc1Oc1cc(C(F)(F)F)ncc1C(=O)Nc1ccnc(C(N)=O)c1 [Compound 34, N-(2-Carbamoyl-4-pyridyl)-4-[2-methoxy-4-(trifluoromethoxy)phenoxy]-6-(trifluoromethyl)pyridine-3-carboxamide]",83 nM
9,"COc1ncccc1Oc1cc(Cl)c(Cl)cc1C(=O)Nc1ccc(F)c(C(N)=O)c1 [Compound 35, N-(3-carbamoyl-4-fluoro-phenyl)-4,5-dichloro-2-[(2-methoxy-3-pyridyl)oxy]benzamide]",250 nM
10,"NC(=O)c1cc(NC(=O)c2cnc(C3CC3)cc2Oc2ccc(OC(F)(F)F)c(Cl)c2)ccc1F [Compound 36, N-(3-Carbamoyl-4-fluoro-phenyl)-4-[3-chloro-4-(trifluoromethoxy)phenoxy]-6-cyclopropyl-pyridine-3-carboxamide]",215 nM
11,"NC(=O)c1cc(NC(=O)c2c(Oc3ccc(F)cc3)cccc2C(F)(F)F)ccc1F [Compound 37, N-(3-Carbamoyl-4-fluoro-phenyl)-2-(4-fluorophenoxy)-6-(trifluoromethyl)benzamide]",890 nM
12,"COc1ccc(Oc2cccc(C(F)(F)F)c2C(=O)Nc2ccc(F)c(C(N)=O)c2)c(OC)c1 [Compound 38, N-(3-Carbamoyl-4-fluoro-phenyl)-2-(2,4-dimethoxyphenoxy)-6-(trifluoromethyl)benzamide]",700 nM
13,"NC(=O)c1cc(NC(=O)c2c(Oc3ccc(OC(F)(F)F)cc3)cccc2C(F)(F)F)ccc1F [Compound 39, N-(3-Carbamoyl-4-fluoro-phenyl)-2-[4-(trifluoromethoxy)phenoxy]-6-(trifluoromethyl)benzamide]",210 nM
14,"COc1cc(OC(F)(F)F)ccc1Oc1cccc(C(F)(F)F)c1C(=O)Nc1ccc(F)c(C(N)=O)c1 [Compound 40, N-(3-Carbamoyl-4-fluoro-phenyl)-2-[2-methoxy-4-(trifluoromethoxy)phenoxy]-6-(trifluoromethyl)benzamide]",34 nM
15,"Cc1cc(F)ccc1Oc1cccc(C(F)(F)F)c1C(=O)Nc1ccc(F)c(C(N)=O)c1 [Compound 41, N-(3-Carbamoyl-4-fluoro-phenyl)-2-(4-fluoro-2-methyl-phenoxy)-6-(trifluoromethyl)benzamide]",560 nM
16,"NC(=O)c1cc(NC(=O)c2cnc(C3CC3)cc2Oc2ccc(OC(F)(F)F)c(F)c2)ccc1F [Compound 42, N-(3-Carbamoyl-4-fluoro-phenyl)-6-cyclopropyl-4-[3-fluoro-4-(trifluoromethoxy)phenoxy]pyridine-3-carboxamide]",400 nM
